Measurements published in patent US10626095B2, “Cyanotriazole compounds” (OTSUKA PHARMACEUTICAL CO., LTD., priority 2013, dated 2020).

Each compound was assayed on Zucker Diabetic Fatty (ZDF) rat (assay: Meal load test in type 2 diabetic model rats (postprandial blood glucose)). Conditions: ZDF rats fasted overnight, oral 30 mg/kg in 5% Arabia gum, blood glucose one hour after meal loading (50 kcal/kg).
Assay type: in vivo
Design: unit not given here
Procedure: Effects on Type 2 Diabetes: Meal Load Test
To evaluate whether a cyanotriazol compound improves diabetes or not, especially related to postprandial blood glucose, meal load test was performed using one of type 2 diabetic model rats, the Zucker Diabetic Fatty (ZDF) rat (Charles river, Japan). About 24 animals fasted overnight (17 h) were taken blood samples from the tail veins, and measured blood glucose levels (Pre BG) and body weights (BW). Proper animals were selected and divided into […] (n=6) based on the Pre BG and BW using SAS Statistical Analysis System (SAS institute Japan Ltd. Release 9.1). The compounds to be tested (10 or 30 mg/kg body weight in 5% Arabia gum) or Arabia gum solution only (vehicle group) were orally administrated via gavage two hours prior to or just before meal loading (50 kcal/kg body weight). The meal suspension was prepared by mixing purified AIN-93G (Norsan Corp, Yokohama, Japan) and distilled water (2:3, w/v). One-hour after meal loading, blood glucose (BG1h) of each animal was measured. Effectiveness of each compound was shown by ? BG1h (BG1h difference between compound group and vehicle group). Although a set of 24 animals was used several times (from 13 weeks to 21 weeks of age), at least a one-week interval was placed from one to another test.

Point of comparison: `CC(OC(=O)OCC(C)(C)C(=O)O)n1nc(C#N)c(-c2cc(/C=C/c3cccc(C(F)(F)F)n3)cc(C(F)(F)F)c2)n1` (stereo not shown) [Example 1813, 3-[1-(4-cyano-5-{3-trifluoromethyl-5-[(E)-2-(6-trifluoromethyl-pyridin-2-yl)-vinyl]-phenyl}-2H-[1,2,3]triazol-2-yl)-ethoxycarbonyloxy]-2,2-dimethyl-propionic acid], “BG1h (BG1h difference between compound group and vehicle group)” value −73.0. Against it:
- CC(OC(=O)OCC(C)(C)C(=O)O)n1nc(C#N)c(-c2cccc(OCc3cc(C(F)(F)F)ccc3C(F)(F)F)c2)n1 (stereo not shown) [Example 1806, 3-(1-{4-[3-(2,5-bis-trifluoromethyl-benzyloxy)-phenyl]-5-cyano-2H-[1,2,3]triazol-2-yl}-ethoxycarbonyloxy)-2,2-dimethyl-propionic acid] — lower, −86.3
- CC(OC(=O)OCC(C)(C)C(=O)O)n1nc(C#N)c(-c2cc(Cl)cc(-c3ccc4c(c3)OC(F)(F)O4)c2)n1 (stereo not shown) [Example 1808, 3-(1-{4-[3-chloro-5-(2,2-difluoro-benzo[1,3]dioxol-5-yl)-phenyl]-5-cyano-2H-[1,2,3]triazol-2-yl}-ethoxycarbonyloxy)-2,2-dimethyl-propionic acid] — lower, −76.0
- CC(OC(=O)OCC(C)(C)C(=O)O)n1nc(C#N)c(-c2cc(Cl)cc(-c3nccc(C(F)(F)F)n3)c2)n1 (stereo not shown) [Example 1810, 3-(1-{4-[3-chloro-5-(4-trifluoromethyl-pyrimidin-2-yl)-phenyl]-5-cyano-2H-[1,2,3]triazol-2-yl}-ethoxycarbonyloxy)-2,2-dimethyl-propionic acid] — higher, −53.2
- CC(OC(=O)OCC(C)(C)C(=O)O)n1nc(C#N)c(-c2cc(Cl)cc(/C=C/c3cccc(C(F)(F)F)c3)c2)n1 (stereo not shown) [Example 1811, 3-[1-(4-{3-chloro-5-[(E)-2-(3-trifluoromethyl-phenyl)-vinyl]-phenyl}-5-cyano-2H-[1,2,3]triazol-2-yl)-ethoxycarbonyloxy]-2,2-dimethyl-propionic acid] — lower, −84.5
- COc1cc(-c2cc(C(F)(F)F)ccn2)cc(-c2nn(C(C)OC(=O)OCC(C)(C)C(=O)O)nc2C#N)c1 (stereo not shown) [Example 1812, 3-(1-{4-cyano-5-[3-methoxy-5-(4-trifluoromethyl-pyridin-2-yl)-phenyl]-2H-[1,2,3]triazol-2-yl}-ethoxycarbonyloxy)-2,2-dimethyl-propionic acid] — lower, −111.8
- CC(OC(=O)OCC(C)(C)C(=O)O)n1nc(C#N)c(-c2csc(-c3ccc(Cl)cc3)n2)n1 (stereo not shown) [Example 1814] — lower, −108.7
- CC(OC(=O)OCC(C)(C)C(=O)O)n1nc(C#N)c(-c2cccc(/C=C/c3cc(C(F)(F)F)ccn3)c2)n1 (stereo not shown) [Example 1815, 3-[1-(4-cyano-5-{3-[(E)-2-(4-trifluoromethyl-pyridin-2-yl)-vinyl]-phenyl}-2H-[1,2,3]triazol-2-yl)-ethoxycarbonyloxy]-2,2-dimethyl-propionic acid] — higher, −63.2
- CC(OC(=O)OCC(C)(C)C(=O)O)n1nc(C#N)c(-c2cccc(/C=C/c3nccc(C(F)(F)F)n3)c2)n1 (stereo not shown) [Example 1816, 3-[1-(4-cyano-5-{3-[(E)-2-(4-trifluoromethyl-pyrimidin-2-yl)-vinyl]-phenyl}-2H-[1,2,3]triazol-2-yl)-ethoxycarbonyloxy]-2,2-dimethyl-propionic acid] — higher, −45.5

These compounds were tested on NaCT-CHO (CHO cells stably expressing human NaCT) (assay: Assay of the citric acid cycle activation ([1,5-14C]-citric acid, diffusion of [14C]-CO2)). Conditions: 1 hour incubation at 37° C. with [1,5-14C]-citric acid.
Assay type: cell-based
Procedure, shortened: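 NaCT-CHO cells (pME-CHO empty-vector cells for non-specific counts) were incubated 1 h at 37 °C in Na+-containing HEPES-Tris pH 7.4 with compound plus an equal volume of 0.4 mM [1,5-14C]-citric acid solution. Residual cell radioactivity was counted, [14C]-CO2 diffusion was taken as (Total−R)/(Total−NS)×100%, and EC50 was derived by regression.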

Point of comparison: `N#Cc1[nH]nnc1-c1cccc(-c2cccc(C(F)(F)F)c2)n1` [Example 141, 5-[6-(3-trifluoromethyl-phenyl)-pyridin-2-yl]-3H-[1,2,3]triazole-4-carbonitrile], EC50 710 nM. Against it:
- N#Cc1[nH]nnc1-c1sccc1-c1cc(C(F)(F)F)cc(C(F)(F)F)c1 [Example 126, 5-[3-(3,5-bis-trifluoromethyl-phenyl)-thiophen-2-yl]-3H-[1,2,3]triazole-4-carbonitrile] — 2.7-fold lower, 260 nM
- N#Cc1[nH]nnc1-c1sccc1-c1cccc(OCc2cc(C(F)(F)F)ccc2C(F)(F)F)c1 [Example 127, 5-{3-[3-(2,5-bis-trifluoromethyl-benzyloxy)-phenyl]-thiophen-2-yl}-3H-[1,2,3]triazole-4-carbonitrile] — within 1.5-fold, 740 nM
- N#Cc1[nH]nnc1-c1cc(-c2ccccc2)c(C(F)(F)F)s1 [Example 128, 5-(4-phenyl-5-trifluoromethyl-thiophen-2-yl)-3H-[1,2,3]triazole-4-carbonitrile] — within 1.5-fold, 560 nM
- N#Cc1[nH]nnc1-c1ccc(-c2cc(F)cc(C(F)(F)F)c2)s1 [Example 129, 5-[5-(3-fluoro-5-trifluoromethyl-phenyl)-thiophen-2-yl]-3H-[1,2,3]triazole-4-carbonitrile] — 1.6-fold lower, 440 nM
- Cc1cc(-c2nn[nH]c2C#N)sc1-c1ccc(C(F)(F)F)cc1 [Example 130, 5-[4-methyl-5-(4-trifluoromethyl-phenyl)-thiophen-2-yl]-3H-[1,2,3]triazole-4-carbonitrile] — within 1.5-fold, 730 nM
- N#Cc1[nH]nnc1-c1ccc(Cc2ccc(Cl)cc2)s1 [Example 131, 5-[5-(4-chloro-benzyl)-thiophen-2-yl]-3H-[1,2,3]triazole-4-carbonitrile] — 1.6-fold lower, 440 nM
- N#Cc1[nH]nnc1-c1ccc(Oc2cccc(C(F)(F)F)c2)s1 [Example 132, 5-[5-(3-trifluoromethyl-phenoxy)-thiophen-2-yl]-3H-[1,2,3]triazole-4-carbonitrile] — 2.2-fold lower, 320 nM
- N#Cc1[nH]nnc1-c1ccc(/C=C/c2cccc(C(F)(F)F)c2)s1 [Example 133, 5-{5-[(E)-2-(3-trifluoromethyl-phenyl)-vinyl]-thiophen-2-yl}-3H-[1,2,3]triazole-4-carbonitrile] — 3.7-fold lower, 190 nM
- N#Cc1[nH]nnc1-c1cscc1-c1cc(C(F)(F)F)cc(C(F)(F)F)c1 [Example 134, 5-[4-(3,5-bis-trifluoromethyl-phenyl)-thiophen-3-yl]-3H-[1,2,3]triazole-4-carbonitrile] — 8.4-fold lower, 85 nM
- N#Cc1[nH]nnc1-c1cc(/C=C/c2cccc(C(F)(F)F)c2)co1 [Example 135, 5-{4-[(E)-2-(3-trifluoromethyl-phenyl)-vinyl]-furan-2-yl}-3H-[1,2,3]triazole-4-carbonitrile] — 2.2-fold higher, 1570 nM
- N#Cc1[nH]nnc1-c1ccc(-c2ccc(Cl)cc2)o1 [Example 136, 5-[5-(4-chloro-phenyl)-furan-2-yl]-3H-[1,2,3]triazole-4-carbonitrile] — within 1.5-fold, 680 nM
- N#Cc1[nH]nnc1-c1cccn1Cc1ccc(C(F)(F)F)cc1C(F)(F)F [Example 138, 5-[1-(2,4-bis-trifluoromethyl-benzyl)-1H-pyrrol-2-yl]-3H-[1,2,3]triazole-4-carbonitrile] — 11-fold lower, 62 nM
- Cn1c(-c2cc(F)cc(C(F)(F)F)c2)ccc1-c1nn[nH]c1C#N [Example 139, 5-[5-(3-fluoro-5-trifluoromethyl-phenyl)-1-methyl-1H-pyrrol-2-yl]-3H-[1,2,3]triazole-4-carbonitrile] — 3.4-fold lower, 210 nM
- N#Cc1[nH]nnc1-c1ccn(-c2cc(C(F)(F)F)ccc2C(F)(F)F)c1 [Example 140, 5-[1-(2,5-bis-trifluoromethyl-phenyl)-1H-pyrrol-3-yl]-3H-[1,2,3]triazole-4-carbonitrile] — within 1.5-fold, 800 nM
- CCC(OCc1ccc(C(F)(F)F)cc1)c1cccc(-c2nn[nH]c2C#N)n1 (stereo not shown) [Example 142, 5-{6-[1-(4-trifluoromethyl-benzyloxy)-propyl]-pyridin-2-yl}-3H-[1,2,3]triazole-4-carbonitrile] — within 1.5-fold, 580 nM
- N#Cc1[nH]nnc1-c1ccc(-c2cccc(C(F)(F)F)c2)nc1 [Example 143, 5-[6-(3-trifluoromethyl-phenyl)-pyridin-3-yl]-3H-[1,2,3]triazole-4-carbonitrile] — within 1.5-fold, 1020 nM
- N#Cc1[nH]nnc1C1CCN(c2cc(C(F)(F)F)ccc2C(F)(F)F)CC1 [Example 144, 5-[1-(2,5-bis-trifluoromethyl-phenyl)-piperidin-4-yl]-3H-[1,2,3]triazole-4-carbonitrile] — within 1.5-fold, 790 nM
- N#Cc1[nH]nnc1-c1ccc2ccn(-c3ccc(F)c(F)c3)c2c1 [Example 145, 5-[1-(3,4-difluoro-phenyl)-1H-indol-6-yl]-3H-[1,2,3]triazole-4-carbonitrile] — 1.9-fold lower, 370 nM
- N#Cc1[nH]nnc1-c1sc2ccccc2c1-c1ccc(F)cc1 [Example 148, 5-[3-(4-fluoro-phenyl)-benzo[b]thiophen-2-yl]-3H-[1,2,3]triazole-4-carbonitrile] — within 1.5-fold, 920 nM
- N#Cc1[nH]nnc1Cc1cccc(-c2cccc(C(F)(F)F)c2)c1 [Example 149, 5-(3′-trifluoromethyl-biphenyl-3-ylmethyl)-3H-[1,2,3]triazole-4-carbonitrile] — within 1.5-fold, 700 nM
- N#Cc1[nH]nnc1CCc1ccccc1OCc1cc(C(F)(F)F)ccc1C(F)(F)F [Example 150, 5-{2-[2-(2,5-bis-trifluoromethyl-benzyloxy)-phenyl]-ethyl}-3H-[1,2,3]triazole-4-carbonitrile] — within 1.5-fold, 860 nM
